Consider `COc1cc(N)c(Cl)cc1C(=O)NC1CCN(CCNC(=O)C(O)c2ccccc2)CC1OC` (centres undefined), for which the melting point – broadly, the temperature, or range, at which the solid turns liquid – came to 228 °C. `CC1(C)OC(=O)C(C(=O)Cc2cc(F)c(F)cc2F)C(=O)O1` came in with a melting point of 102 to 104 °C. In turn, `CN1CCCC1=C(C#N)c1ccc(Cl)cc1` yielded a melting point of 71 to 72 °C. As to `COC(=O)CC[C@H](NC(=O)c1ccc(NCCc2c(N(C(C)=O)C(C)=O)nc(NC(C)=O)[nH]c2=O)cc1)C(=O)OC`, the melting point was 168 to 178 °C.

In the case of `CC(C)n1c(=O)sc2cc(N3C[C@H](C(N)=O)OC3=O)ccc21`, the melting point fell in the range of 183 to 184 °C. In turn, `CC(=O)NCC(=O)c1cc(OC(C)=O)c(OC(C)=O)c([N+](=O)[O-])c1` registered a melting point of 121 to 124 °C. In turn, `O=C1O[C@H](Cc2ccon2)CN1c1ccc(N2CCC3(CC2)OCCO3)c(F)c1` registered a melting point of 120 to 122 °C. For `O=C(NCCc1ccc(O)cc1)c1ccc2n1Cc1ccccc1N(C(=O)COc1ccc(Cl)cc1)C2` the value was 206 to 207 °C; for `CCCC(=O)NC1=NN(c2cccc(Cl)c2)CC1`, 168 to 169 °C; for `Nc1nnc(SCCCCc2ccccc2)s1`, 111 °C. Then `COc1ccc(-c2cc(=O)n(CCCOc3ccccc3)nc2-c2ccc(OC)cc2)cc1`, with 110 to 111 °C.

In turn, `CCCCCOc1ccc(C(=O)Nc2ccc3cc(CN4CCCC4)cnc3c2C)c(F)c1` came in with a melting point of 143 °C. For `COc1cc(OC)cc(S(=O)(=O)c2ccc([N+](=O)[O-])c(C)c2)c1` the value was 125 to 127 °C; for `O=C(O)c1cccc(C(CCc2ccc(Cl)cc2)CC(=O)c2ccccc2)c1` (centres undefined), 93 to 95 °C. Take `ClCCCOc1cc(Cl)c(OCCCCl)cc1Cl`: the melting point came to 162 °C. In turn, `Nc1nc(Nc2ccccc2)sc1C(=O)c1ccsc1` came in with a melting point of 171 to 172 °C. `CC(C)c1ccccc1N/C(S)=C(\C#N)C(=O)Nc1ccc(-c2ncn(-c3ccc(OC(F)(F)F)cc3)n2)cc1` returned a melting point of 159 to 162 °C. Then `COc1cc(COc2nn(-c3ccccc3)cc2C=O)ccc1OCc1nc(-c2cccnc2)oc1C`, with 161 to 162 °C.

With `CCOC(=O)c1sc(SC(C)C)c2c1CCC(NC(C)=O)C2=O` (centres undefined), the melting point lay within 170 to 171 °C.

Regarding `CN1C(=O)CC[C@]2(C)c3ccc(-c4ccc([N+](=O)[O-])s4)cc3CC[C@@H]12`, the melting point is 147 to 149 °C. For `Cc1cccc(N2CC(=O)N(C)C(=O)N2)c1` the value was 173 to 175 °C. The molecule `CCC1=C(O)C(=O)CO1` came in with a melting point of 47 to 48 °C. `O=C1Nc2ccc(Cl)cc2C12OCCCO2` yielded a melting point of 184 to 185 °C.

Consider `Cc1oc(-c2ccc(C(F)(F)F)cc2)nc1COc1cc(F)cc(CN(O)C(N)=O)c1`, for which the melting point fell in the range of 156 to 157 °C. In turn, `O=c1ccc2ccc(Br)cc2[nH]1` yielded a melting point of 295 °C. The molecule `CC(Oc1cc(F)cc(F)c1)C1=NCCN1` (centres undefined) came in with a melting point of 134 °C. For `CC#CCOc1ccc(S(=O)(=O)N2CCOCC2C(=O)NO)cc1` (centres undefined) the value was 68 to 72 °C; for `Cc1ccc2c(c1C)OCC(NNc1ncnc3c1ncn3C1OC(CO)C(O)C1O)C2` (centres undefined), 170 to 172 °C. `CN(C)CCc1c(CC(C)(C)[N+](=O)[O-])c2ccccc2n1C` showed a melting point of 87 to 90 °C. Then `Cc1ccc(NC(=O)Oc2ccc3c(c2)N(Cc2ccccc2)CCC3)cc1`, with 98 °C.

The molecule `COc1ccc(N2C(=O)C3=C(SCCO3)C2O)nn1` (centres undefined) displayed a melting point of 165 °C. For `O=C1NC(=O)c2c1c(-c1ccccc1Cl)cc1c2c2cc(O)ccc2n1CC(O)CO` (centres undefined) the value was 305 to 309 °C. For the molecule `CCCc1c(OCCCOc2cc(O)c(-c3ccc(F)cc3)cc2CC)cccc1C(=O)c1ccccc1C(=O)O`, the melting point lay in the range of 50 to 52 °C. For `NC(=O)c1ccc(Cc2ccccc2)cn1` the value was 193 to 196 °C; for `CC(C)(C)c1ccc(CC[C@H](O)CCCC2CCCCC2)cc1NC(=O)CC1c2ccccc2Oc2ccccc21`, 128 to 129 °C. For `CC(C)OP(=O)(OCN1C(=O)c2c(C(C)C)cc(OCC(=O)OCc3ccccc3)cc2S1(=O)=O)OC(C)C` the value was 93 to 94 °C; for `CCC(CC)Cn1c(=O)c(=O)[nH]c2cc([N+](=O)[O-])c(-n3cccc3C(=O)OC)cc21`, 240 to 241 °C.

`CC(=O)OC1CCC2C3CCC4=C([N+](=O)[O-])C(=O)CCC4(C)C3CCC12C` (centres undefined) returned a melting point of 216 to 217 °C.

`COC(=O)CSCc1cnc(OC)c([N+](=O)[O-])c1` yielded a melting point of 57 to 60 °C.

In the case of `Brc1ccc(OCCCCCN2CCN(c3nccs3)CC2)cc1`, the melting point lay in the range of 73 to 75 °C. With `OC/C=C/C=C/c1ccc(OCC(F)(F)C(F)F)cc1`, the melting point lay in the range of 95 to 97 °C.

On to `COc1ccc(CBr)cc1[N+](=O)[O-]`, for which the melting point was 110 to 112 °C. For `O=C(O)c1ccc(CNc2nc(-c3cccnc3)nc3ccccc23)cc1` the value was 285 to 294 °C; for `CNc1ncc2c(-c3cccc(Cl)c3)cc(-c3ccc(C(=O)O)cc3)c(O)c2n1`, 291 to 296 °C. For `CCOc1c(C(C)=O)cnc2[nH]ncc12` the value was 245 to 248 °C; for `O=c1[nH]c(=O)n(C2CC(F)C(CO)O2)cc1C(Br)=CI` (centres undefined), 107 °C; for `O=C(Nc1ccc(-n2nc(C(F)(F)F)cc2C(F)(F)F)cc1)C1(O)CC1`, 198 to 200 °C.

Molecule `CCCC12CCC(=O)C=C1c1c(cc(OCC3=NCCN3)c(Cl)c1Cl)C2` (centres undefined) gave a melting point of 152 to 154 °C.

On to `COc1cc(C=O)cc(-c2cc3c(cc2F)c(=O)c(C(=O)O)cn3C2CC2)c1OC`, for which the melting point is greater than 230 °C.

For the molecule `COC(=O)c1ccc(C=C2CCn3c2nc2cc([N+](=O)[O-])ccc2c3=O)cc1`, the melting point is 264 to 266 °C. As for `O=C(NCc1ccccc1Cl)c1cccnc1Oc1ccc(F)cc1F`, the melting point lay in the range of 122 to 124 °C. Consider `O=C(Nc1ccc(Oc2ccc(CCC(=O)N3CCN(Cc4ccc5c(c4)OCO5)CC3)cc2)nc1)c1ccc(C(F)(F)F)cc1`, for which the melting point was in the range of 140 to 141 °C. For `CC(=O)SCC(CC(C)C)C(=O)NC(C)C(=O)O` (centres undefined) the value was 157 to 167 °C; for `COc1cccc(N2CCN(CCCO)CC2)c1`, 87 to 89 °C. Then `Cc1ccc(C(C)N(O)C(N)=O)cc1` (centres undefined), with 134 to 135 °C; and `CC(C)(C)c1cc(C2NNC(=S)N2N)cc(C(C)(C)C)c1O` (centres undefined), with 260 to 270 °C; and `CCCc1c(COc2ccc(Cc3nnn(CCCCCCc4nnn[nH]4)n3)cc2)ccc(C(C)=O)c1O`, with 110 to 113 °C. Then `O=C1CCC(C(=O)Nc2ccc(Cl)cc2C(=O)c2ccccc2Cl)O1` (centres undefined), with 170 to 173 °C.

With `CC(C)N1C(=O)C(N=[N+]=[N-])N=C(c2ccccc2)c2ccccc21` (centres undefined), the melting point lay within 178 to 179 °C. As to `Fc1ccc(-c2cc(-c3ccccc3)c3cc(Cl)ccc3n2)cc1`, the melting point was in the range of 141 to 142 °C. For `Cc1nc2c3c(c(C(=O)N(C)C)cc2[nH]1)CC[C@@H](c1ccccc1C)O3`, the melting point stood at 219 °C. For `CCOC(=O)c1cnn(-c2c(F)cc(C(F)(F)F)cc2Cl)c1N` the value was 147 to 149 °C; for `Cc1cc2cc(Nc3ccnc4cc(-c5ccc(C=O)cc5)sc34)ccc2[nH]1`, 223 to 240 °C; for `Cc1noc(NS(=O)(=O)c2ccccc2-c2ccccc2)c1Br`, 145 to 147 °C. For `Cn1c(-c2ccc(OC3CCN(C4CCC4)CC3)cc2)nc2ccccc2c1=O` the value was 168 to 171 °C. The molecule `COC(=O)C1CN(C(=O)C2=Cc3cc(OC)c(OC)cc3CCC2)CCN1` (centres undefined) registered a melting point of 103 to 104 °C. With `COc1cccc(-c2nc(-c3ccccc3)c3ncc(-c4ccc(C(C)=O)cc4)cc3n2)c1`, the melting point was 133 to 134 °C. In turn, `CCOC(=O)c1ccc(OCCC2CCN(c3ccc(F)nn3)CC2)cc1` came in with a melting point of 132 °C. On to `N#Cc1cc(N)ccc1N1CCC(CCO)CC1`, for which the melting point was 60 to 63 °C. For `NC(=NO)c1ncn2c1[C@@H]1CCN1C(=O)c1cc(F)ccc1-2` the value was 248 to 250 °C; for `COc1ccc2c(c1OC(C)=O)NC(O)C1CCCN1C2=O` (centres undefined), 144 to 146 °C.

Turning to `O=S(=O)(Nc1cccc(COc2cccc3cccnc23)c1)c1ccc(F)cc1`, the melting point was 206 to 207 °C.

`CSc1ccccc1-c1[nH]c2cccc3c2c1CCNC3=O` displayed a melting point of 271 to 272 °C. For `CCCc1c(OCCOc2ccccc2C(=O)O)ccc(C(C)=O)c1O` the value was 108 to 110 °C; for `CCc1c2c(nn1CC)c(N)nc1ncccc12`, 286 to 288 °C. Then `CCC1(CC)C(=O)N(C(C)(C)C)CC(C)(C)N1C(C)c1ccc(OC(C)=O)cc1` (centres undefined), with 92 to 96 °C; and `COc1nnc(-c2cc3c([nH]c2=O)CCN(Cc2ccccc2)C3)o1`, with 176 to 178 °C.

`CC(C)CN1N=Cc2cc(S(N)(=O)=O)sc2S1(=O)=O` yielded a melting point of 130 to 132 °C. Regarding `CCN(CC)c1ccc(C(=O)OC)nc1`, the melting point was in the range of 52 to 53.5 °C. In turn, `CC1(C)OC[C@H](Cc2ccccc2)N1C(=O)Cn1cc(I)cn1` gave a melting point of 117 to 120 °C. In the case of `COc1cc2cc(CO)cc(-c3ccnc(Cl)c3)c2cc1OC`, the melting point was in the range of 115 to 118 °C.

The molecule `Cc1cccc(-c2[nH]cnc2-c2ccc(F)c(Br)c2)n1` returned a melting point of 205 °C.

The molecule `COc1ccc(C=C(CSC(C)=O)C(=O)NCCC(=O)OCc2ccccc2)cc1` displayed a melting point of 96 °C.

`Cc1ncc(-c2cccc(Nc3ncnc4c3CCOc3ccccc3-4)c2)n1C` came in with a melting point of 235 to 237 °C. For the molecule `NC(=O)c1sc2nccc(N3CCCN(c4ccc(OCc5ccccc5)cc4)CC3)c2c1N`, the melting point lay in the range of 211 to 213 °C. The molecule `CCCCCCCCCCCCC(=O)c1noc(CCCCCCCCCCCC)c1[N+](=O)[O-]` registered a melting point of 60 to 62 °C.

As to `O=C(Nc1cc(C2CC2)n[nH]1)c1ccccc1`, the melting point is 234 °C. Then `COc1cc(OC)c2nccc(Cl)c2c1`, with 115 to 116 °C; and `O=C(CSc1nc2ccccc2[nH]1)c1ccc(Br)cc1`, with 241 to 245 °C.

(Values after a melting point compilation (Tetko et al.; mined from patent text by program, amines drawn as free bases though some values may be those of a salt).)
